Measurements as given in patent publication US20090162351A1, “Transdiscal administration of inhibitors of p38 MAP kinase” (DePuy Spine, Inc., priority 2007, published 2009).
Entries after “also recorded” stand apart in the source; their conditions may differ.

Legend:
[1] = system: bovine chondrocyte pellets / ARC tissues stimulated with IL-1β; assay: Chondrocyte pellet / ARC culture model: GAG degradation assay; format: cell-based; conditions: for concentration as low as which proteoglycan degradation was inhibited: chondrocyte pellets, 10 ng/ml IL-1β, five days; for effect on IL-1β-stimulated GAG degradation/release (in words): chondrocyte pellet / ARC model; for GAG Release, Pellet Assay (in words): Table 3B
Description: A chondrocyte pellet culture model was developed for in vitro high throughput screening of therapeutic compounds for inhibition of IL-1β-stimulated matrix degradation. The chondrocyte pellet culture model can be used to detect various potential therapeutic compounds effective in blocking different processes caused by IL-1β stimulation. For example, IL-1β stimulation results in increased glycosaminoglycan (GAG) degradation, prostaglandin E2 (PGE2) synthesis and total nitrite/nitrate production. Compounds with different mechanisms of action may inhibit the increase of one or two or all three of these parameters. For this reason, screening by, for example, measuring only GAG release would be limited to detection of a specific class of inhibitors and may not detect compounds with diversified mechanisms of function which may be involved in inhibition of the IL-1 stimulated inflammatory process. The development of the chondrocyte pellet culture assay system in a 96-well plate made possible large-scale screening of potential therapeutic compounds with different mechanisms of action.
Calf articular cartilage was obtained from the knee joints of eight to twelve month old animals and was processed within twenty-four hours after sacrifice. After removal of muscle and ligament, the cartilage was kept moist using phosphate buffer solution (PBS) to prevent tissue dehydration, and was aseptically peeled off from subchondral bone with a scalpel, and the cartilage pieces were further minced into smaller pieces (˜0.3-0.5×˜0.2-0.5 cm cubes). […] Chondrocytes were then enzymatically isolated from the tissue by incubation for overnight at 37° C. with gentle agitation in 0.2% collagenase in Dulbecco's modified eagle media (DMEM). After removal of tissue debris by filtration through cell strainer and the residual collagenase by 3× wash in PBS, cells were finally resuspended at a density of 2.5×10^6 cells/ml in chondrocyte medium. A 1 ml aliquot of the cell suspension was dispensed into either a 15 ml Falcon centrifuge tube or a 96 deep-well plate and centrifuged at 2000×g for five minutes. The chondrocyte pellets were incubated at 37° C. in a humidified atmosphere of 5% CO2 for two to three weeks with a medium change every other day.
As an alternative to using calf articular cartilage, a commercial Aliginate Recovered Chondrocytes (ARC) system was also used (Articular Engineering, LLC (Northbrook, Ill.)). Use of the commercial system cut down on labor and time in producing chondrocyte pellet. This system produced cartilaginous tissue in vitro using bovine chondrocytes. The first step consisted of culturing chondrocytes in alginate under conditions optimal for the formation of a cell-associated matrix (CM). The second step allowed these cells with their CM, after recovery, to rapidly form and become integrated into a solid mass of cartilage on a porous insert within two weeks.
This tissue is rich in cells surrounded by a cell-associated matrix that is degraded rapidly when the cells are exposed to IL-1. ARC tissues in 3 mm punches at delivery were first dispensed into a 96 deep-well plate, one punch per well, for compound treatment. The subsequent procedures were the same as those used for the chondrocyte pellets.
Chondrocyte pellets were washed once with 1 ml of Chondrocyte Stimulation Medium and equilibrated in the same medium at room temperature for fifteen to thirty minutes. Compounds were dissolved in H2O, Ethanol or dimethyl sulfoxide (DMSO) (10^−2 M) according to suppliers' instructions and further diluted with Chondrocyte Stimulation Medium to the required concentrations. DMSO concentrations in the culture media should not exceed 1%; this concentration of DMSO has no effect on cartilage proteoglycan metabolism in response to cytokines.
The pellets were first treated with compounds at desired concentrations at 37° C. for one hour and then incubated for three to five days in the absence or presence of 10 ng/ml of IL-1β. […]

[2] = system: injured bovine articular cartilage explants in inflammatory medium; assay: Drop tower model: GAG degradation in injured cartilage explants; format: cell-based; design: inhibition of GAG release vs no treatment explant: dose or concentration left out as unconfirmed; conditions: for Inhibition of GAG degradation (in words): Table 4, injured cartilage explants, inflammatory conditions; for efficacy in inhibiting GAG release (in words): drop tower model; for Inhibition of GAG degradation: at 0.1-1 μM
Description: In order to assess cartilage breakdown by inflammatory mediators and the effect of antagonists on those mediators, a cartilage impact model (the “drop tower model”) was established using a drop tower device to apply a peak compressive stress to a cartilage sample of about 20-30 MPa over an area of about 11-15 mm^2. Advantages of this model included its clinical relevance due to its potential to mimic several key parameters of osteoarthritis such as inflammatory cell mediators (by co-culturing with inflammatory cells), and induction of trauma to create the cartilage damage.
In the “drop tower design model” cartilage explants were first injured and then cultured in inflammatory medium to mimic the progression of joint impact trauma linked to cartilage degeneration and osteoarthritis. The approach of the model is to artificially produce cellular damage without gross structural alterations, and to determine how the cells respond to such an insult over the ensuing days when treated with or without potential therapeutic agents.
The device comprises a vertical rail that guides a sliding weight from 0.1 kg to 3 kg directly onto a force transducer which is situated at the bottom of the device. A sphere-shaped 2 mm indenter resting on a specimen is located at the bottom of the vertical rail. The indenter is held by a stop screw. The specimen is rigidly attached to a tissue holder underneath the indenter, to avoid side movements, the specimen is rigidly attached to the tissue holder. In this manner, the force transducer transduces a force indirectly onto the specimen. Adjusting the weight of a mass and height from which the mass drops varies the magnitude of the intended impact. For example, a weight mass (e.g., […]) held by a weight holder can be released from a height of e.g., 36 cm and dropped onto the force transducer.
Samples for compound evaluation were tested using either of two different methods to induce inflammatory conditions. One method utilized media conditioned from peripheral blood mononuclear cells (PBMCs) stimulated with LPS (“+LPS”) or non-inflammatory media without LPS (“−LPS”). Another method utilized the absence or presence of a cocktail of cytokines.
In the first method, bovine or human PBMCs were freshly prepared using Ficoll gradient by Lampire Biological Laboratories, Inc. PBMCs in RPMI w/10% FCS at delivery were spun down at 1500 rpm for twenty minutes and the cell pellet was washed twice with 1×PBS to wash off the residual Ficoll. The cells were then resuspended at a density of 1×10^6/ml in RPMI supplemented with 10% FCS, 1× Antibiotics-Antimycotics. The suspension was divided into two aliquots. One aliquot was stimulated with 10 μg/ml of LPS and the other was not stimulated. Both aliquots were then incubated at 37° C., 5% CO2 for twenty-four to seventy-two hours. The conditioned media with or without LPS stimulation are collected, aliquoted, and stored in −80° C. for a maximum of three months. Each conditioned medium was assessed for levels of pro-inflammatory cytokines to ensure their secretion from PBMC. A representative cytokine, IL-6, was assayed by ELISA using a Human IL-6 Quantikine kit and it was shown that the LPS-stimulated medium had at least 10 ng/ml of IL-6, while IL-6 was undetectable in the unstimulated medium.
In the second method, the explants were cultured at 37° C., 5% CO2 either in stimulated or non-stimulated conditioned medium as described above or in defined medium containing DMEM supplemented with 1% FCS, 1× insulin-transferrin-sodium selenite media supplement and Antibiotics-Antimycotics in the presence or absence of a cocktail of cytokines containing 10 ng/ml of IL-1β, 100 ng/ml of TNFα and 5 ng/ml of IFN-γ. The compounds were solubilized in H2O, Ethanol or DMSO (10^−2 M) according to suppliers' instructions and further diluted with either conditioned medium stimulated with or without LPS to the required concentrations. DMSO concentrations in the culture media never exceeded 1%. […]

[3] = Bos taurus, Chondrocyte, read-out: GAG Release (inhibition), Pellet Assay
[4] = Bos taurus, injured cartilage explants

In the case of `CC(=O)Oc1cccc2c1C(=O)c1c(OC(C)=O)cc(C(=O)O)cc1C2=O` [Diacerein, reference compound], the “concentration as low as which proteoglycan degradation was inhibited” value [1] is reported as 0.054 µM, the “inhibitory effect for GAG vs lower concentrations (in words)” value ([1]; diacerein at 5.4 μM, rhein at 3.5 μM) is reported as “weaker inhibitory effect” and the inhibition at 54 µM ([2]; Bos taurus, at 54 μM, injured cartilage explants) is reported as 100%. For the same molecule, the “proteoglycan degradation in injured cartilage induced by inflammatory mediators (in words)” value ([2]; at high dosage, LPS-stimulated PBMC conditioned medium, five days) was “completely inhibited”.
In the case of `OCCC#Cc1nc(-c2ccc(F)cc2)c(-c2ccncc2)n1CCCc1ccccc1` [JNJ 3026582 (RWJ 67657), 4-[4-(4-fluorophenyl)-1-(3-phenylpropyl)-5-(4-pyridinyl)-1H-imidazol-2-yl]-3-butyn-1-ol], the inhibition at 10 µM [1, 3] is reported as roughly 90%, the “effect on IL-1β-stimulated GAG degradation/release (in words)” value [1] is reported as “significantly inhibited; also recorded: significant effect” and the “Inhibition of GAG degradation (in words)” value [2] is reported as “little”. The “efficacy in inhibiting GAG release (in words)” value [2] was “little efficacy”.
In the case of `C[C@H](Nc1nccc(-c2c(-c3ccc(F)cc3)nc3nc(N)ccn23)n1)c1ccccc1` [JNJ 7583979 (RWJ 351958)], the inhibition at 1 µM ([1]; Bos taurus, Chondrocyte, at 1 μM, read-out: GAG Release (inhibition), Pellet Assay) is reported as 10%, the inhibition at 10 µM [1, 3] is reported as 64% and the “effect on IL-1β-stimulated GAG degradation/release (in words)” value [1] is reported as “significantly inhibited; also recorded: significant effect”. For the same molecule, the “Inhibition of GAG degradation (in words)” value [2] was “little” and the “efficacy in inhibiting GAG release (in words)” value [2] was “little efficacy”.
For `CC(=O)N1CCN(c2c(-c3ccncc3)c(-c3ccc(F)cc3)c(C#N)n2C)CC1` [JNJ 17089540 (RWJ 669307)], the “GAG Release, Pellet Assay (in words)” value [1] was “No effect” and the “effect on IL-1β-stimulated GAG degradation/release (in words)” value [1] was “little effect”.
With `CO[C@H]1C[C@@H]2CC[C@@H](C)[C@@](O)(O2)C(=O)C(=O)N2CCCC[C@H]2C(=O)O[C@H]([C@H](C)C[C@@H]2CC[C@@H](O)[C@H](OC)C2)CC(=O)[C@H](C)/C=C(\C)[C@@H](O)[C@@H](OC)C(=O)[C@H](C)C[C@H](C)/C=C/C=C/C=C/1C` [Rapamycin, reference compound] the inhibition at 10 µM [1, 3] was 50%, the “Inhibition of GAG degradation” value ([2]; injured cartilage explants) was 100% inh at 0.1-1 μM and the “inhibition of GAG release vs no treatment explant” value ([2]; five days) was roughly 84%.
`O=C(O)c1cc(O)c2c(c1)C(=O)c1cccc(O)c1C2=O` [Rhein, reference compound] was tested, and the “concentration as low as which proteoglycan degradation was inhibited” value [1] was 0.035 µM and the inhibition at 35 µM ([2]; Bos taurus, at 35 μM, injured cartilage explants) was 100%.
With `C[C@@H]1CN(Cc2ccc(F)cc2)[C@@H](C)CN1C(=O)c1cc2cc(C(=O)C(=O)N(C)C)[nH]c2cc1Cl` [SCIO-282 (SD 282)] the “GAG Release, Pellet Assay (in words)” value [1] was “No effect” and the “effect on IL-1β-stimulated GAG degradation/release (in words)” value [1] was “little effect”.
With `C[C@@H]1CN(Cc2ccc(F)cc2)[C@@H](C)CN1C(=O)c1cc2c(C(=O)C(=O)N(C)C)cn(C)c2cc1Cl` [SCIO-469 (SD 469)] the “GAG Release, Pellet Assay (in words)” value [1] was “No effect” and the “effect on IL-1β-stimulated GAG degradation/release (in words)” value [1] was “no effect”.
`CC(C(=O)O)c1ccc(C(=O)c2cccs2)cc1` (stereo not drawn) [Suprofen, reference compound] was tested, and the “GAG Release, Pellet Assay (in words)” value [1] was “No effect” and the “Inhibition of GAG degradation” value ([2]; injured cartilage explants) was 100% inh at 0.1-1 μM.
With `COc1ccc(-n2nc(CCC(=O)N(C)O)cc2-c2ccc(Cl)cc2)cc1` [Tepoxalin, reference compound] the inhibition at 10 µM [1, 3] was 15% and the inhibition at 10 µM [2, 4] was 100%.
In the case of `Cc1ccc(C(=O)c2ccc(CC(=O)O)n2C)cc1` [Tolmetin, reference compound], the “GAG Release, Pellet Assay (in words)” value [1] is reported as “No effect” and the inhibition at 10 µM [2, 4] is reported as 60%.
